Test systems include 786-0; ACHN; BT-549; CAKI-1; HOP-62; Hs-578T; MDA-MB-435; NCI/ADR-RES; PC-3; RPMI-8226; SF-268; SF-295; SK-MEL-5; SN12C; SNB-19; TK-10; UACC-62; HOP-92; T47D; HCC 2998.
What all share (assay): NCI anticancer screen, dose series, 48 h

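Briefly, cells in 96-well plates were exposed to five compound concentrations for 48 h, and endpoints were estimated by linear interpolation. GI50 = concentration required for 50% inhibition of growth.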 Activity calls are given as the source filed them. Cut-off read from the data, not from the text of the source: active = GI50 up to about 1.1 µM and inactive = higher.

`Fc1ccc(/C(=N/Cc2ccccc2)N2CCOCC2)cc1`: the GI50 in the test on 786-0, in the test with ACHN, in the test on BT-549, in the test with CAKI-1, with HOP-62 and in the test with Hs-578T was > 100 µM (inactive) in each case. The GI50 in the test with MDA-MB-435, in the test on NCI/ADR-RES, in the test with PC-3, in the test with RPMI-8226, with SF-268 and with SF-295 was > 100 µM (inactive) in each case. Besides, the GI50 with SK-MEL-5, in the test with SN12C, in the test on SNB-19, in the test with TK-10 and in the test on UACC-62 was > 100 µM (inactive) each time.

Take `COc1ccccc1[C@@H]1CCC2CC[C@@H](c3ccccc3OC)[N+]21Cc1ccccc1` (stereo partly specified): the GI50 with 786-0 was 1.94 µM (inactive); with ACHN, 3.3 µM (inactive); with BT-549 it was 0.893 µM (active); in the test with CAKI-1 it was 3.87 µM (inactive); with HOP-62, 2.33 µM (inactive); in the test on HOP-92, 0.968 µM (active). Further, the GI50 in the test on Hs-578T is 4.49 µM (inactive); in the test on MDA-MB-435, 0.585 µM (active); in the test with NCI/ADR-RES it was 13 µM (inactive); with PC-3, 1.25 µM (inactive); in the test on RPMI-8226 it was 0.211 µM (active); with SF-268 it was 3.64 µM (inactive). Further, the GI50 in the test on SF-295 is 2.33 µM (inactive); in the test on SK-MEL-5 it was 0.36 µM (active); in the test with SN12C, 2.54 µM (inactive); in the test on SNB-19 it was 0.982 µM (active); in the test with T47D, 0.349 µM (active); in the test on TK-10, 5.74 µM (inactive).

As for `CCN(CC)CCCNc1nncc2cc3c([nH]c4ccccc43)c(C)c12`, the GI50 in the test on 786-0 was 5.53 µM (inactive); in the test with ACHN, 10.2 µM (inactive); in the test with BT-549, 17.9 µM (inactive); with CAKI-1, 33.4 µM (inactive); with HCC 2998, 11 µM (inactive); in the test on HOP-62 it was 12.9 µM (inactive). For the same molecule, the GI50 in the test with Hs-578T was 14.1 µM (inactive); with MDA-MB-435, 18.2 µM (inactive); in the test with NCI/ADR-RES, 48.9 µM (inactive); with PC-3, 8.13 µM (inactive); in the test on RPMI-8226, 12 µM (inactive); with SF-268, 8.18 µM (inactive). Moreover, the GI50 with SF-295 was 16 µM (inactive); in the test with SK-MEL-5, 19.3 µM (inactive); in the test on SN12C, 6.24 µM (inactive); with SNB-19 it was 12.4 µM (inactive); with T47D it was 13.3 µM (inactive); with TK-10, 20.9 µM (inactive). For the same molecule, the GI50 in the test with UACC-62 is 15.7 µM (inactive).

In the case of `COC(=O)c1ccc(-c2nc(C#N)c(N)o2)cc1`, the GI50 with 786-0 is 59.3 µM (inactive); with ACHN, > 100 µM (inactive); with BT-549 it was 23.8 µM (inactive); in the test with CAKI-1, > 100 µM (inactive); with HOP-62 it was 67.9 µM (inactive); in the test with Hs-578T, 32.2 µM (inactive). The GI50 with MDA-MB-435 is > 100 µM (inactive); in the test on PC-3, > 100 µM (inactive); with RPMI-8226 it was > 100 µM (inactive); with SF-268 it was 37.7 µM (inactive); in the test with SF-295, > 100 µM (inactive); in the test with SK-MEL-5, > 100 µM (inactive). For the same molecule, the GI50 in the test with SN12C was > 100 µM (inactive); in the test on SNB-19 it was 34.7 µM (inactive); with T47D it was > 100 µM (inactive); with TK-10 it was > 100 µM (inactive).

Regarding `COc1ccc(-c2cc(-c3cc(F)c(Cl)cc3Cl)[nH]n2)cc1OC`, the GI50 is 19.6 µM (inactive) with 786-0; 7.76 µM (inactive) in the test with ACHN; 30.2 µM (inactive) in the test with BT-549; 50.8 µM (inactive) with CAKI-1; 39.9 µM (inactive) in the test on HOP-62; 20.6 µM (inactive) in the test with HOP-92. In addition, the GI50 in the test on Hs-578T is 43.7 µM (inactive); in the test on MDA-MB-435, 46.2 µM (inactive); in the test with NCI/ADR-RES it was 25.1 µM (inactive); with PC-3, 21.2 µM (inactive); in the test with RPMI-8226, 17.3 µM (inactive); in the test on SF-268, 29.2 µM (inactive). Besides, the GI50 in the test on SF-295 was 18.3 µM (inactive); in the test with SK-MEL-5, 17.1 µM (inactive); with SN12C it was 22.7 µM (inactive); in the test with SNB-19, 49.4 µM (inactive); in the test on T47D it was 28.6 µM (inactive); in the test on TK-10, 43.4 µM (inactive).

For `NC1=C(c2nc(-c3ccccc3)cs2)C(c2ccco2)c2c(c3ccccc3oc2=O)O1` (stereo unspecified), the GI50 in the test with 786-0, in the test with ACHN, with BT-549, in the test on CAKI-1, with HCC 2998 and with HOP-62 was > 100 µM (inactive) in each case. Also, the GI50 was 53.3 µM (inactive) in the test on HOP-92; 3.32 µM (inactive) with Hs-578T; > 100 µM (inactive) with MDA-MB-435; > 100 µM (inactive) in the test with NCI/ADR-RES; > 100 µM (inactive) in the test on PC-3; > 100 µM (inactive) in the test on SF-268. In addition, the GI50 with SF-295, in the test with SK-MEL-5, in the test on SN12C, in the test on SNB-19, with TK-10 and in the test with UACC-62 was > 100 µM (inactive) each time.

As to `COC(=O)C1=C(CCCCO[Si](C)(C)C(C)(C)C)NC(=O)N2[C@H](CCOCc3ccccc3)CC[C@@H]12`, the GI50 with 786-0 is 44.7 µM (inactive); in the test on ACHN it was > 100 µM (inactive); in the test with BT-549, 45.8 µM (inactive); in the test on CAKI-1 it was 34 µM (inactive); in the test with HCC 2998 it was > 100 µM (inactive); in the test with HOP-62, > 100 µM (inactive). The GI50 with HOP-92 is 32.1 µM (inactive); in the test on MDA-MB-435, 39.2 µM (inactive); in the test on NCI/ADR-RES, 32.7 µM (inactive); in the test with PC-3 it was 26.9 µM (inactive); in the test with RPMI-8226, 49.4 µM (inactive); in the test with SF-268, > 100 µM (inactive). The GI50 is 33.1 µM (inactive) in the test with SF-295; 13 µM (inactive) in the test on SK-MEL-5; 30.1 µM (inactive) with SN12C; 78.3 µM (inactive) in the test with SNB-19; 35.4 µM (inactive) in the test on T47D; > 100 µM (inactive) in the test on TK-10. For the same molecule, in the test on UACC-62, the GI50 was > 100 µM (inactive).

For the molecule `CCCCCCCCCc1nn2c(Cc3ccccc3)nnc2s1`, the GI50 in the test on 786-0 was 19.2 µM (inactive); in the test with ACHN, 20 µM (inactive); in the test on BT-549, 18.8 µM (inactive); in the test on CAKI-1, 30.3 µM (inactive); in the test on HOP-62, 19.9 µM (inactive); in the test with Hs-578T it was 20.8 µM (inactive). For the same molecule, the GI50 is 26.3 µM (inactive) with MDA-MB-435; 16.7 µM (inactive) in the test with NCI/ADR-RES; 22.1 µM (inactive) in the test with PC-3; 23.6 µM (inactive) in the test on RPMI-8226; 16.7 µM (inactive) in the test on SF-268; 18.9 µM (inactive) with SF-295. Moreover, the GI50 with SK-MEL-5 was 15.9 µM (inactive); in the test on SN12C it was 18.2 µM (inactive); with SNB-19 it was 18.2 µM (inactive); in the test on T47D it was 24.7 µM (inactive); in the test on TK-10 it was 24.6 µM (inactive); with UACC-62, 18 µM (inactive).

Turning to `CC(=O)Oc1ccc(-c2cc3ccccc3oc2=O)cc1OC(C)=O`, the GI50 in the test on 786-0 is 21.7 µM (inactive); in the test on ACHN it was 16.8 µM (inactive); in the test with BT-549 it was 35.2 µM (inactive); with HCC 2998, 18.7 µM (inactive); with HOP-62 it was 43.7 µM (inactive); in the test with Hs-578T, 35.9 µM (inactive). The GI50 was 27.1 µM (inactive) in the test with MDA-MB-435; 21.3 µM (inactive) with NCI/ADR-RES; 47.5 µM (inactive) in the test on PC-3; 12.7 µM (inactive) with RPMI-8226; 27.9 µM (inactive) in the test on SF-268; 28.2 µM (inactive) in the test with SF-295. The GI50 in the test on SN12C was 53.7 µM (inactive); in the test on SNB-19, 31.6 µM (inactive); in the test on T47D, 36.2 µM (inactive); in the test on TK-10 it was 22.1 µM (inactive).

As to `O=C1C(Cl)=C(Nc2ccc(S(=O)(=O)O)cc2)C(=O)c2ccccc21`, the GI50 in the test with 786-0 was 27.2 µM (inactive); in the test with ACHN, 22 µM (inactive); with BT-549, 76.2 µM (inactive); in the test on CAKI-1, 39.5 µM (inactive); in the test with HCC 2998 it was 95.9 µM (inactive); with HOP-62, 36.2 µM (inactive). Further, the GI50 was 17.3 µM (inactive) with HOP-92; 24 µM (inactive) in the test on Hs-578T; 21.7 µM (inactive) in the test on MDA-MB-435; > 100 µM (inactive) in the test on NCI/ADR-RES; 23 µM (inactive) in the test on PC-3; 24.7 µM (inactive) in the test with RPMI-8226. Besides, the GI50 with SF-268 was 39.3 µM (inactive); with SF-295, 33.6 µM (inactive); in the test with SK-MEL-5, 13.4 µM (inactive); in the test with SNB-19, 24.6 µM (inactive); in the test with TK-10 it was 22.1 µM (inactive); in the test on UACC-62, 64.4 µM (inactive).

Regarding `Oc1cc2c3c(c1)c1cc4c(cc1c[n+]3CC2)OCO4`, the GI50 in the test with 786-0 is 1.08 µM (active); in the test on ACHN, 3.1 µM (inactive); in the test with BT-549, 1.77 µM (inactive); with CAKI-1, 10.2 µM (inactive); in the test with HCC 2998, 4.4 µM (inactive); in the test with HOP-62, 8.45 µM (inactive). Besides, the GI50 in the test with HOP-92 is 15.2 µM (inactive); with Hs-578T, 0.906 µM (active); in the test on MDA-MB-435 it was 5.5 µM (inactive); in the test on PC-3 it was 3 µM (inactive); with RPMI-8226 it was 1.77 µM (inactive); with SF-268 it was 0.224 µM (active). Also, the GI50 is 2.97 µM (inactive) in the test with SF-295; 4.97 µM (inactive) with SK-MEL-5; 1.29 µM (inactive) in the test with SN12C; 1.8 µM (inactive) in the test on SNB-19; 3.47 µM (inactive) in the test with T47D; 13 µM (inactive) in the test on TK-10. Also, in the test on UACC-62, the GI50 was 7.83 µM (inactive).

The record behind these values is ChEMBL document CHEMBL1201862, “PubChem BioAssay data set” (2004).
